Measured values taken from US10207993B2 (priority 2014, dated 2019).

These compounds were tested on H37Rv (assay: microbe, parasite or virus in culture). Conditions: 0.5 µM.
Type: cell-based, M. tuberculosis

| SMILES | H37Rv % Inhibition at 500 nM [%] |
| --- | --- |
| CN1CCCC(NC(=O)C(O)(c2ccccc2)c2ccccc2)C1 (stereo in doubt) [Compound 1032, (R)-2-Hydroxy-N-(1-methylpiperidin-3-yl)-2,2-diphenylacetamide] | 72 |
| CN1CCCC(NC(=O)[C@H](O)c2ccccc2)C1 (stereo in doubt) [Compound 1045, (R)-2-Hydroxy-N-((S)-1-methylpiperidin-3-yl)-2-phenylacetamide] | 66 |
| CN1CCC(OC(=O)C(O)c2ccccc2)CC1 (stereo in doubt) [Compound 1047, (S)-1-Methylpiperidin-4-yl 2-hydroxy-2-phenylacetate] | 68 |
| O=C(NC1CCN(Cc2ccccc2)CC1)C(O)(c1ccccc1)c1ccccc1 [Compound 1021, N-(1-Benzylpiperidin-4-yl)-2-hydroxy-2,2-diphenylacetamide] | 74 |
| O=C(Nc1cccnc1)[C@H](O)c1ccccc1 [Compound 1055, (R)-2-Hydroxy-2-phenyl-N-(pyridin-3-yl)acetamide] | 52 |

Same assay, conditions: Mycobacterium tuberculosis, H37RV, THP-1, 90 h, read-out: H37Rv % Inhibition at 500 nM

| SMILES | inhibition at 0.5 µM [%] |
| --- | --- |
| O=C(NC1CCCN(Cc2ccccc2)C1)C(O)(c1ccccc1)c1ccccc1 (stereo in doubt) [Compound 1029, (R)-N-(1-Benzylpiperidin-3-yl)-2-hydroxy-2,2-diphenylacetamide] | 61 |
| O=C(Nc1cccnc1)C(O)c1ccccc1 (stereo in doubt) [Compound 1046, (S)-2-Hydroxy-2-phenyl-N-(pyridin-3-yl)acetamide] | 56 |
| COC(C(=O)OC1CCCN(C)C1)c1ccccc1 (stereo in doubt) [Compound 1059, (S)-(R)-1-Methylpiperidin-3-yl 2-methoxy-2-phenylacetate] | 74 |
| C[N+]12CCC(CC1)C(OC(=O)C(O)(c1ccccc1)c1ccccc1)C2 (centres unmarked) [Compound 1008, 3-(2-Hydroxy-2,2-diphenylacetoxy)-1-methylquinuclidin-1-ium] | 42 |
| O=C(NC1CCCNC1)C(O)(c1ccccc1)c1ccccc1 (centres unmarked) [Compound 1016, 2-Hydroxy-2,2-diphenyl-N-(piperidin-3-yl)acetamide] | 65 |
| O=C(NC1CCN(Cc2ccccc2)CC1)C(O)(c1ccccc1)c1ccccc1 [Compound 1017, N-(1-Benzylpiperidin-4-yl)-2-hydroxy-2,2-diphenylacetamide] | 75 |
| CN1CCCC(NC(=O)C(O)(c2ccccc2)c2ccccc2)C1 (centres unmarked) [Compound 1020, 2-Hydroxy-N-(1-methylpiperidin-3-yl)-2,2-diphenylacetamide] | 64 |
| O=C(NC1CN(Cc2ccccc2)C1)C(O)(c1ccccc1)c1ccccc1 [Compound 1022, N-(1-Benzylazetidin-3-yl)-2-hydroxy-2,2-diphenylacetamide] | 75 |
| O=C(N[C@@H]1CCCN(Cc2ccccc2)C1)C(O)(c1ccccc1)c1ccccc1 [Compound 1028, (R)-N-(1-Benzylpiperidin-3-yl)-2-hydroxy-2,2-diphenylacetamide] | 77 |
| O=C(NC1CCNCC1)C(O)(c1ccccc1)c1ccccc1 [Compound 1030, 2-Hydroxy-2,2-diphenyl-N-(piperidin-4-yl)acetamide] | 52 |
| CN1CCC[C@H](NC(=O)C(O)(c2ccccc2)c2ccccc2)C1 [Compound 1031, (S)-2-Hydroxy-N-(1-methylpiperidin-3-yl)-2,2-diphenylacetamide] | 74 |
| O=C(N[C@@H]1CCCN(Cc2ccccc2)C1)C(c1ccccc1)c1ccccc1 [Compound 1034, (R)-N-(1-Benzylpiperidin-3-yl)-2,2-diphenylacetamide] | 64 |
| O=C(N[C@H]1CCCN(Cc2ccccc2)C1)C(O)c1ccccc1 (stereo partly drawn) [Compound 1035, N-((S)-1-Benzylpiperidin-3-yl)-2-hydroxy-2-phenylacetamide] | 62 |
| CC(O)(C(=O)N[C@@H]1CCCN(Cc2ccccc2)C1)c1ccccc1 (stereo partly drawn) [Compound 1036, N-((R)-1-Benzylpiperidin-3-yl)-2 hydroxy-2-phenylpropanamide] | 58 |
| CN1CCC[C@@H](OC(=O)[C@H](O)c2ccccc2)C1 [Compound 1037, (R)-(R)-1-Methylpiperidin-3-yl 2-hydroxy-2-phenylacetate] | 40 |
| CN1CCC[C@H](OC(=O)[C@H](O)c2ccccc2)C1 [Compound 1038] | 56 |
| CN1CCC[C@@H](OC(=O)[C@@H](O)c2ccccc2)C1 [Compound 1039] | 61 |
| CN1CCC[C@H](OC(=O)[C@@H](O)c2ccccc2)C1 [Compound 1040, (S)-(S)-1-Methylpiperidin-3-yl 2-hydroxy-2-phenylacetate] | 79 |

| SMILES | inhibition at 0.5 µM [%] |
| --- | --- |
| CN1CCC(OC(=O)[C@H](O)c2ccccc2)CC1 [Compound 1041, (R)-1-Methylpiperidin-4-yl 2-hydroxy-2-phenylacetate] | 71 |
| CN1CCC(NC(=O)[C@@H](O)c2ccccc2)CC1 [Compound 1042, (S)-2-Hydroxy-N-(1-methylpiperidin-4-yl)-2-phenylacetamide] | 73 |
| CN1CCC(NC(=O)[C@H](O)c2ccccc2)CC1 [Compound 1043, (R)-2-Hydroxy-N-(1-methylpiperidin-4-yl)-2-phenylacetamide] | 72 |
| CN1CCC[C@@H](NC(=O)[C@H](O)c2ccccc2)C1 [Compound 1044, (R)-2-Hydroxy-N-((R)-1-methylpiperidin-3-yl)-2-phenylacetamide] | 65 |
| O=C(OC1CN(Cc2ccccc2)C1)[C@@H](O)c1ccccc1 [Compound 1048, (S)-1-Benzylazetidin-3-yl 2-hydroxy-2-phenylacetate] | 79 |
| O=C(NC1CCN(Cc2ccccc2)CC1)[C@H](O)c1ccccc1 [Compound 1051, (R)-N-(1-Benzylpiperidin-4-yl)-2-hydroxy-2-phenylacetamide] | 59 |
| O=C(NC1CCN(Cc2ccccc2)CC1)[C@@H](O)c1ccccc1 [Compound 1052, (S)-N-(1-Benzylpiperidin-4-yl)-2-hydroxy-2-phenylacetamide] | 73 |
| C[N+]1(C)CCC[C@@H](OC(=O)[C@H](O)c2ccccc2)C1 [Compound 1053, (R)-3-((R)-2-Hydroxy-2-phenylacetoxy)-1,1-dimethylpiperidin-1-ium] | 78 |
| C[N+]1(C)CCC[C@H](OC(=O)[C@H](O)c2ccccc2)C1 [Compound 1054, (S)-3-((R)-2-Hydroxy-2-phenylacetoxy)-1,1-dimethylpiperidin-1-ium] | 74 |
| CC(=O)O[C@@H](C(=O)O[C@H]1CCCN(C)C1)c1ccccc1 [Compound 1056] | 78 |
| CN1CC[C@@H](OC(=O)[C@H](O)c2ccccc2)C1 [Compound 1057, (R)-(R)-1-Methylpyrrolidin-3-yl 2-hydroxy-2-phenylacetate] | 76 |
| CN1CC[C@H](OC(=O)[C@H](O)c2ccccc2)C1 [Compound 1058] | 55 |
| COC(C(=O)O)c1ccccc1 (centres unmarked) [Compound 1060, 2-Methoxy-2-phenylacetic acid] | 78 |
| CO[C@@H](C(=O)N1CCOC[C@@H]1C)c1ccccc1 [Compound 1074, (R)-2-Methoxy-1-((S)-3-methylmorpholino)-2-phenylethanone] | 24 |
| CO[C@@H](C(=O)N1CCOC[C@H]1C)c1ccccc1 [Compound 1075, (R)-2-Methoxy-1-((R)-3-methylmorpholino)-2-phenylethanone] | 46 |
| CO[C@@H](C(=O)N1CCO[C@H](C)[C@@H]1C)c1ccccc1 [Compound 1076, (R)-1-((2R,3S)-2,3-Dimethylmorpholino)-2-methoxy-2-phenylethanone] | 50 |
| CO[C@H](C(=O)N1CCOC[C@@H]1C)c1ccccc1 [Compound 1077, (S)-2-Methoxy-1-((S)-3-methylmorpholino)-2-phenylethanone] | 52 |

What follows are compounds tested against GPR109A (Homo sapiens, UniProt Q8TDS4) (assay: not given). Conditions: not given.
Type: cell-based

GPR109A, sequence (Q8TDS4 whole entry): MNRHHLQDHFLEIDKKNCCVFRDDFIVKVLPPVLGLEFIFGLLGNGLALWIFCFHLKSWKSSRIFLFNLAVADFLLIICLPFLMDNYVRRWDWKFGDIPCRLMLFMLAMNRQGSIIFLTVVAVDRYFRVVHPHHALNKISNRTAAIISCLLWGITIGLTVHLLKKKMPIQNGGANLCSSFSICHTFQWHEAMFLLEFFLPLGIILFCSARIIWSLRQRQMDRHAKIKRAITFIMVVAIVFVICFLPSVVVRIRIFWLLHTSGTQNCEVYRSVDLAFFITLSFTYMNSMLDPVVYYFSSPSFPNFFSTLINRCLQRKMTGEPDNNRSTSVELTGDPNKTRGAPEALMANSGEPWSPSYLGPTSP

| SMILES | effect on intracellular cAMP levels |
| --- | --- |
| CC(O)CC(=O)O (centres unmarked) [Compound 3HBA, 3-hydroxybutyric acid] | reduces intracellular cAMP levels |
